The values below come from article PMC8460535, “Novel serotonin 5-HT2A receptor antagonists derived from 4-phenylcyclohexane-5-spiro-and 5-methyl-5-phenyl-hydantoin, for use as potential antiplatelet agents” (Pharmacological Reports, 2021).

What is called IC50 is the concentration at which inhibition is half-maximal. Usually Ki stands for a dissociation constant, usually derived from enzyme kinetics or from competition with a known ligand.

Where two headings read alike, the source gives them in different places. Marks after values point to notes of the source that are not given here. Where only a bound is given, the exact number is not on record here.

Experiment [1] deals with T1, human 5-HT2A receptor (Homo sapiens, UniProt P28223).
T1 construct: purchased PerkinElmer; host or cells: CHO-K1 cells, stably transfected
T1 sequence (P28223 whole entry): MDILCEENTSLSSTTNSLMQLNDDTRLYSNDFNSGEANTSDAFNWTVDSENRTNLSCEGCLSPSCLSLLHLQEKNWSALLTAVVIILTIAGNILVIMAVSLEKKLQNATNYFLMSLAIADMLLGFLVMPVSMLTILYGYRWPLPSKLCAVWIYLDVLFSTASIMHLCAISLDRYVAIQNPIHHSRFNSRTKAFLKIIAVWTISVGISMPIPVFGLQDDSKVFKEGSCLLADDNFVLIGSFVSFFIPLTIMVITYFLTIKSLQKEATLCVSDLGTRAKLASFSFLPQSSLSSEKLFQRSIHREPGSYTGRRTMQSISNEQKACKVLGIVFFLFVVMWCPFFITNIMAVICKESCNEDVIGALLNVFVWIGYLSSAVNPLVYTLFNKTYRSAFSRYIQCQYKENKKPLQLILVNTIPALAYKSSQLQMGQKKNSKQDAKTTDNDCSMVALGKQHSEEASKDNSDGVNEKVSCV
The experiment is described as follows: 5-HT2A receptor radioligand binding assay ([3H]-ketanserin, CHO-K1 membranes). The conditions noted are these: radioligand binding, compound 13 vs compound 3. The procedure: Stock solutions of tested compounds (10 mM) were prepared in DMSO. […] Each compound was tested in eight concentrations from 10^–5 to 10^–12 M (final concentration).
Radioligand binding was performed using membranes from CHO-K1 cells stably transfected with the human 5-HT2A receptor (PerkinElmer). All assays were carried out in duplicates. Data were fitted to a one-site curve-fitting equation with Prism 6 (GraphPad Software) and Ki values were estimated from the Cheng − Prusoff equation. The full description of this assay is in Supplementary material.
Mianserin (10 μM) was used to define nonspecific binding. […] The reaction was terminated by rapid filtration through GF/B filter mate presoaked with 0.5% polyethyleneimine for 30 minutes. Ten rapid washes with 200 µl 50 mM Tris buffer (4°C, pH 7.4) were performed using automated harvester system Harvester-96 MACH III FM (Tomtec). […] Radioactivity was counted in MicroBeta2 scintillation counter (PerkinElmer).

Experiment [2] concerns whole rat blood aggregation induced by collagen. In words: In vitro whole rat blood aggregation induced by collagen (Multiplate). The format is cell-based. To be noted: collagen 1.6 μg/ml, na = not active. The procedure: (§1) In vitro aggregation assays were performed using freshly drawn whole rat blood with a Multiplate platelet function analyzer (Roche Diagnostic), the five-channel aggregometer based on measurements of electric impedance. Blood was collected from carotid arteries with a hirudin blood tube (Roche Diagnostic). 300 μl of hirudin anticoagulated blood was mixed with 300 μl prewarmed isotonic saline solution containing studied compound or vehicle (deionized water or DMSO 0.1%) and preincubated for 3 min at 37 °C with continuous stirring. Aggregation was induced by adding collagen (Hyphen-Biomed, France) (final concentration 1.6 µg/ml), 5-HT (30 µM) and sub-threshold concentration of collagen (0.8 µg/ml), 5-HT (6 µM) and sub-threshold concentration of ADP (ADP test, Roche Diagnostic), (1.6 µM). The aggregation process was recorded for 6 min. Ketanserin (ketanserin ( +) tartrate salt, Sigma-Aldrich, Germany), sarpogrelate (sarpogrelate hydrochloride, Sigma-Aldrich, Germany), and aspirin (Tocris, UK) were used as reference compounds. The Multiplate software analyzed the area under the curve (AUC) of the clotting process of each measurement and calculated the mean values. Each concentration of studied compounds was tested at least three times. The exact sample size (n value) is presented on Figs. 2–4. Concentration-inhibition curves were constructed and analyzed by non-linear curve fitting using GraphPad Prism 6.0 (GraphPad Software Inc., San Diego, CA, USA).

The test system of experiment [3] is whole rat blood aggregation induced by 5-HT and collagen. The experiment is described as follows: In vitro whole rat blood aggregation induced by 5-HT and sub-threshold collagen. Type of experiment: cell-based. To be noted: 5-HT 30 μM and collagen 0.8 μg/ml, read-out: b (5-HT + collagen) IC50. As to the method: as §1
In experiment [4] the test system is whole rat blood aggregation induced by 5-HT and ADP. The experiment is described as follows: In vitro whole rat blood aggregation induced by 5-HT and sub-threshold ADP. The format is cell-based. The conditions noted are these: 5-HT 6 μM and ADP 1.6 μM, na = not active, read-out: c (5-HT + ADP) IC50. As to the method:
as §1

The target in the next experiment is 5-HT2A receptor. The conditions noted are these: cited from earlier work.
Experiment [5] addresses T2, 5-HT2A receptors in rat aorta (Rattus norvegicus, UniProt P14842).
T2 construct: Isolated rat aorta was used to determine the antagonistic activity of studied compounds for 5HT2A-receptors; from tissue; host or cells: aortic rings of male Wistar rats, denuded of the endothelium
To be noted: already published; cited from earlier work.

The target in experiment [6] is serotonin 5-HT1A receptor. The arrangement: method as in Czopek et al., Acta Pol. Pharm. 73 (2016) 1545–1554. To be noted: ref Czopek et al., Acta Pol. Pharm. 73 (2016) 1545–1554; read-out: Ki ± SEM [nM] 5-HT1A; cited from earlier work.
The next experiment addresses dopamine D2 receptor. The arrangement: method as in Czopek et al., Acta Pol. Pharm. 73 (2016) 1545–1554. To be noted: ref Czopek et al., Acta Pol. Pharm. 73 (2016) 1545–1554; read-out: Ki ± SEM [nM] D2; cited from earlier work.
For experiment [7], the target named is T1, human 5-HT2A receptor. The arrangement: method as in PMID 29111111. The conditions noted are these: cells expressing human 5-HT2A receptors; already published; cited from earlier work.
Experiment [8] concerns whole rat blood aggregation induced by 5-HT and ADP. The arrangement: method as in PMID 29111111. The conditions noted are these: 5-HT 6 μM and ADP 1.6 μM, already published, read-out: c (5-HT + ADP) IC50; cited from earlier work.

T2 sequence (P14842 whole entry): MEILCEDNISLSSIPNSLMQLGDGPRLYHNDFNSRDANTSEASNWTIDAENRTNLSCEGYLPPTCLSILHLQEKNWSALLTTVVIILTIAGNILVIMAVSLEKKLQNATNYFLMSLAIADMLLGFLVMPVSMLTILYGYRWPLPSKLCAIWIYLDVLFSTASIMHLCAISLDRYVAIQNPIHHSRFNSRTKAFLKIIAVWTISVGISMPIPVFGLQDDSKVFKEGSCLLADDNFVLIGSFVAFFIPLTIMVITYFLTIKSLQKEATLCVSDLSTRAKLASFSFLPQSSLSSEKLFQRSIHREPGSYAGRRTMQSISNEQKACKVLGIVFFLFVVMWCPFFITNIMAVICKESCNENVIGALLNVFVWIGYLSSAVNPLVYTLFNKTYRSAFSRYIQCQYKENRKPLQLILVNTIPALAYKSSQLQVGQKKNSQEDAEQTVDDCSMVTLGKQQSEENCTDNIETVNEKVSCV

With `O=C1NC2(CCC(c3ccccc3)CC2)C(=O)N1CCCN1CCN(c2ccccc2)CC1` (stereo not shown) [Compound 13, 8-phenyl-3-(3-(4-phenylpiperazin-1-yl)propyl)-1,3-diazaspiro[4.5]decane-2,4-dione], on human 5-HT2A receptor [1], the “fold higher affinity for 5-HT2A compared to compound 3” value is recorded as “over 25 fold”. For the same molecule, the 50% inhibitory concentration (IC50) came out at 27.3 ± 3.8 µM in experiment [2], 53.3 ± 4.6 µM in experiment [3] and 9.9 ± 2.5 µM in [4]. The inhibitory constant (Ki) was 50 nM on 5-HT2A receptor (5-HT2A receptors, previous studies, read-out: Ki (5-HT2A) of earlier hydantoin leads); 1670 ± 75 nM in [6]; greater than 10000 nM at dopamine D2 receptor. In experiment [5], the “pKB ± SEM a” value was 7.665 ± 0.03^a.

For `O=C1NC2(CCC(c3ccccc3)CC2)C(=O)N1CCCN1CCN(c2cccc(Cl)c2)CC1` (stereo not shown) [Compound 14, 3-(3-(4-(3-chlorophenyl)piperazin-1-yl)propyl)-8-phenyl-1,3-diazaspiro[4.5]decane-2,4-dione], the figures for the 50% inhibitory concentration (IC50) in [3] and in experiment [4] were 75.8 ± 16.6 µM and 93.8 ± 9.4 µM, respectively. The inhibitory constant (Ki) at 5-HT2A receptor (Table S1, ref Czopek et al., Acta Pol. Pharm. 73 (2016) 1545–1554, read-out: Ki ± SEM [nM] 5-HT2A) is 56 ± 7 nM; at 5-HT2A receptor (serotonin 5-HT2A receptors, already published and re-printed for comparison, read-out: Ki [nM] ± SEM) it was 24 ± 2.5 nM; in [6], 5210 ± 268 nM; on dopamine D2 receptor, greater than 10000 nM. In experiment [5], the “pKB ± SEM a” value is listed as 7.110 ± 0.05^a.

Take `COc1cccc(CCc2ccccc2OCC(CN(C)C)OC(=O)CCC(=O)O)c1` (stereo not shown) [Sarpogrelate]: the values for the IC50 in experiment [2] and in experiment [8] were 66.8 ± 12.9 µM and 22.7 ± 2.1 µM, respectively. Besides, in experiment [5], the “pKB ± SEM a” value is 8.220 ± 0.08^b. The “pKB ± SEM b” value at human 5-HT2A receptor [7] is given as 7.296 ± 0.04^b.
